According to patent publication US5549910A, “Preparation of liposome and lipid complex compositions” (priority 1994, dated 1996):
Structures can show the parent of a compound that is named as a salt. Where two headings read alike, the source gives them in different places. Blank lines part the entries; values can stand above or below the molecule they belong to.

Experiments:
[1] = Solubility and solution stability; assay type: physicochemical
Procedure: Solutions of the polyene antibiotics amphotericin B (30 mM) and nystatin (50 mM) were prepared in DMSO. The primaricin aqueous suspension obtained from Sigma was lyophilized and resuspended in various solvents. […] The polyene antibiotics were combined with the various lipids in a solvent mixture of DMSO, DMSO:MP or DMSO:EtOH (7:3) and then injected into the aqueous phase. The preparations formed were transferred to a dialysis bag and dialyzed versus 100 volumes of distilled water, changed twice unless otherwise indicated. The ratio of the components, exact solvent mixtures and other conditions are given in the results. Samples of the preparations were dissolved in methanol and the polyene concentration determined spectrophotometrically (Szoka et al., supra): amphotericin B at 406 nm, nystatin at 306 nm and primaricin at 318 nm.

[2] = pH 7.4; cited from earlier work
A. fumigatus = assay: Immunosuppressive neutropenic rabbit model of invasive aspergillosis, organ cultures; assay type: in vivo, A. fumigatus (in rabbits); details: 30 days; Free AmpB 4.5 mg/Kg/day; Lipidic-AmpB 6-9 mg/Kg/day
[3] = Acute mortality (death within 24 hours of drug administration) in immunosuppressed rabbits challenged with A. fumigatus; assay type: in vivo, rabbit; details: animals dead/total
Procedure: Liposomes were prepared with amphotericin B and cholesterol sulfate as described in Example 3. An immunosuppressive neutropenic rabbit model of invasive aspergillosis was used to compare the lipidic particle formulation with free amphotericin B.
Twenty-eight rabbits were immunosuppressed by administration of cyclophosphamide and triamcinolone. The rabbits were then challenged with 10^6 A. fumigatus. After 24 hours, the rabbits were divided into three treatment groups: eight rabbits received 4.5 mg/Kg/day free amphotericin B; four rabbits received 7.5 mg/Kg/day free amphotericin B; five rabbits received 6-9 mg/Kg/day amphotericin B lipidic particles (equivalent to 3-4.5 mg/Kg/day amphotericin B); three rabbits received 15 mg/Kg/day amphotericin B lipidic particles (equivalent to 7.5 mg/Kg/day amphotericin B); and eight rabbits were controls.
Treatment was continued for 30 days for the 4.5 mg/Kg free amphotericin B and 6-9 mg/Kg lipidic particle treatment groups.

Molecule: CC(C)CCC[C@@H](C)[C@H]1CC[C@H]2[C@@H]3CC=C4C[C@@H](OS(=O)(=O)O)CC[C@]4(C)[C@H]3CC[C@]12C [CholSO4, cholesterol sulfate]
solubility in DMSO ([1]; DMSO): soluble

solubility in DMSO [1]: soluble
Molecule: CC(C)CCC[C@@H](C)[C@H]1CC[C@H]2[C@@H]3CC=C4C[C@@H](OC(=O)CCC(=O)O)CC[C@]4(C)[C@H]3CC[C@]12C [Chems, cholesterol hemisuccinate]

Molecule: cis-platinum
solubility in DMSO ([1]; DMSO): exceedingly soluble

solubility in 1-methyl-2-pyrrolidinone ([1]; 1-methyl-2-pyrrolidinone): exceedingly soluble
Molecule: CC(C)CCC[C@@H](C)[C@H]1CC[C@H]2[C@@H]3CC=C4C[C@@H](O)CC[C@]4(C)[C@H]3CC[C@]12C [Cholesterol]

Molecule: COc1cccc2c1C(=O)c1c(O)c3c(c(O)c1C2=O)C[C@@](O)(C(=O)CO)C[C@@H]3O[C@H]1C[C@H](N)[C@H](O)[C@H](C)O1 [doxorubicin]
solubility in DMSO ([1]; DMSO): very soluble
aqueous solubility [2]: low aqueous solubility

Molecule: CC1/C=C/C=C/C=C/C=C/C=C/C=C/C=C/C(OC2OC(C)C(O)C(N)C2O)CC2OC(O)(CC(O)CC(O)C(O)CCC(O)CC(O)CC(=O)OC(C)C(C)C1O)CC(O)C2C(=O)O (stereo not shown) [Free AmpB]
Organ Cultures (No. Sterile/Total), Kidney (A. fumigatus): 5/5
Organ Cultures (No. Sterile/Total), Liver (A. fumigatus): 5/5
Organ Cultures (No. Sterile/Total), Lung (A. fumigatus): 3/5
Acute mortality (death within 24 hours) ([3]; 4.5 mg/Kg): 3/8
Acute mortality (death within 24 hours) ([3]; 7.5 mg/Kg): 4/4

solubility in DMSO [1]: very soluble
stability of solution in DMSO:MP [1]: stable yellow solution
Molecule: CC1C/C=C/C=C/C=C/C=C/C(OC2OC(C)C(O)C(N)C2O)CC2OC(O)(CC(O)CC3OC3/C=C/C(=O)O1)CC(O)C2C(=O)O (stereo not shown) [Primaricin]
